Among the data in patent US20250243208A1, “BICYCLIC HETEROCYCLES AS MRGPRX2 ANTAGONISTS” (Incyte Corporation, priority 2024, published 2025) are IC50 values, retold here.

The structures appear in SMILES notation. pIC50: −log10 of the molar value.

For orientation: pIC50 means −log10 of the IC50, conventionally taken in molar units. The low end stands for a large IC50, the high end for a small IC50.

This test deals with T1, MRGPRX2 (Homo sapiens, UniProt Q96LB1).
T1 sequence (Q96LB1 1-330): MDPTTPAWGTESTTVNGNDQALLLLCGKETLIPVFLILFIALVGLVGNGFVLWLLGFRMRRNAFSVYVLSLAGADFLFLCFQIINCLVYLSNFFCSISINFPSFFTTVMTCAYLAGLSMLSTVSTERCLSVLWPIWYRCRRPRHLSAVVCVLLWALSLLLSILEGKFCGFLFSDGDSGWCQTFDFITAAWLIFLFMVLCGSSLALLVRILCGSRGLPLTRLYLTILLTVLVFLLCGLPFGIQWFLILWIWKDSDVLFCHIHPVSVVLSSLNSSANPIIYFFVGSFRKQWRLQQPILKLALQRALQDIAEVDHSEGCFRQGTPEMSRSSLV
As to the kind of experiment: MRGPRX2 β-Arrestin recruitment assay (PathHunter CHO-K1). It counts as cell-based. On the set-up: host or cells: PathHunter CHO-K1. To be noted: PathHunter CHO-K1 cells, agonist Cortistatin 14 0.25 μM. The source says: Example C: MRGPRX2 β-Arrestin Assay
This assay measures compound inhibition of β-Arrestin recruitment, which is part of the G protein-independent pathway that results from the ligand-activated GPCR phosphorylation by specific GPCR kinases. The PathHunter CHO-K1 MRPGRX2 B-Arrestin Cell line stably expressing ProLink tagged MRGPRX2 and Enzyme Acceptor Tagged B-Arrestin was purchased from Eurofins DiscoverX, (Fremont, CA).
The cells were maintained in culture medium from the Europhins DiscoverX Cell Culture Kit-107 which includes FBS, hygromycin B and G418. For the assay, the cells were harvested and were resuspended with Cell Plating Reagent 2 (Eurofins DiscoverX). Cells were added 10000 cells in 25 μL/well to a 384-well black cell culture plate (Greiner VWR, Radnor, PA) which contained 125 nL/well of compound at a selected serially diluted concentration range or DMSO. The plate was incubated at 37° C. with 5% CO2 for 1 h. 2 μL/well of agonist Cortistatin 14 was diluted in Protein Dilution Buffer, (Eurofins DiscoverX) for a final concentration of 0.25 μM, was added and the plate was incubated at 37° C. with 5% CO2 for 90 min. 14 μL/well of Detection Reagent Mix (PathHunter Detection Kit, Eurofins DiscoverX) was added to the plates and further incubated for 1 h in the dark. Plates were read on the PHERAstar microplate reader (BMG Labtech Cary, NC) measuring luminescence 0.1 to 1 s per well. Data was normalized using DMSO only wells and wells with high concentration of reference antagonist as controls. Compound IC50 curves were globally fitted with 3- or 4-parameter Hill equation in a Genedata Screener (Genedata Basel, Switzerland).
Turning to `C[C@@]1(O)CCN(C(CNc2cc(C(F)(F)F)nc3cc(C(F)(F)F)nn23)c2ccc(F)cc2)C1` (mixture of isomers) [Example 30, (3R)-1-(2-((2,5-Bis(trifluoromethyl)pyrazolo[1,5-a]pyrimidin-7-yl)amino)-1-(4-fluorophenyl)ethyl)-3-methylpyrrolidin-3-ol], the negative logarithm of the IC50 (pIC50) was 7.00 to 10.00.

In turn, `OC[C@H]1CCN(C(CNc2cc(C(F)(F)F)nc3cc(C(F)(F)F)nn23)c2ccc(F)cc2)C1` (mixture of isomers) [Example 31, ((3S)-1-(2-((2,5-Bis(trifluoromethyl)pyrazolo[1,5-a]pyrimidin-7-yl)amino)-1-(4-fluorophenyl)ethyl)pyrrolidin-3-yl)methanol] showed a negative-log IC50 (pIC50) of 7.00 to 10.00.

`OC1CCC12CN(C(CNc1cc(C(F)(F)F)nc3cc(C(F)(F)F)nn13)c1ccc(F)cc1)C2` (mixture of isomers) [Example 34, 2-(2-((2,5-Bis(trifluoromethyl)pyrazolo[1,5-a]pyrimidin-7-yl)amino)-1-(4-fluorophenyl)ethyl)-2-azaspiro[3.3]heptan-5-ol]: the pIC50 was 7.00 to 10.00. `CCC(CNc1cc(C(F)(F)F)nc2cc(C(F)(F)F)nn12)(c1ccc(F)cc1)C1CN(C(N)=O)C1` (racemic) [Example 1, 3-(1-((2,5-Bis(trifluoromethyl)pyrazolo[1,5-a]pyrimidin-7-yl)amino)-2-(4-fluorophenyl)butan-2-yl)azetidine-1-carboxamide] showed a pIC50 of 7.00 to 10.00. The figure for `CC(CNc1cc(C(F)(F)F)nc2cc(C(F)(F)F)nn12)(c1ccc(F)cc1)C1CCN(C(N)=O)CC1` (racemic) [Example 2, 4-(1-((2,5-Bis(trifluoromethyl)pyrazolo[1,5-a]pyrimidin-7-yl)amino)-2-(4-fluorophenyl)propan-2-yl)piperidine-1-carboxamide] is 7.00 to 10.00; for `Cn1nc(N2CC(C(C)(CNc3cc(C(F)(F)F)nc4cc(C(F)(F)F)nn34)c3ccc(F)cc3)C2)ccc1=O` (racemic) [Example 12, 6-(3-(1-((2,5-Bis(trifluoromethyl)pyrazolo[1,5-a]pyrimidin-7-yl)amino)-2-(4-fluorophenyl)propan-2-yl)azetidin-1-yl)-2-methylpyridazin-3(2H)-one] it is 7.00 to 10.00. With `NC(=O)N1CCC(C(CNc2cc(C(F)(F)F)nc3cc(C(F)(F)F)nn23)c2ccc(F)cc2)CC1` (racemic) [Example 15, 4-(2-((2,5-Bis(trifluoromethyl)pyrazolo[1,5-a]pyrimidin-7-yl)amino)-1-(4-fluorophenyl)ethyl)piperidine-1-carboxamide] the figure was 7.00 to 10.00; with `NC(=O)N1CC(C(CO)(CNc2cc(C(F)(F)F)nc3cc(C(F)(F)F)nn23)c2ccc(F)cc2)C1` (racemic) [Example 21, 3-(1-((2,5-Bis(trifluoromethyl)pyrazolo[1,5-a]pyrimidin-7-yl)amino)-2-(4-fluorophenyl)-3-hydroxypropan-2-yl)azetidine-1-carboxamide], 7.00 to 10.00; with `OC1CCC2(CC1)CN(C(CNc1cc(C(F)(F)F)nc3cc(C(F)(F)F)nn13)c1ccc(F)cc1)C2` (racemic) [Example 23, 2-(2-((2,5-Bis(trifluoromethyl)pyrazolo[1,5-a]pyrimidin-7-yl)amino)-1-(4-fluorophenyl)ethyl)-2-azaspiro[3.5]nonan-7-ol], 7.00 to 10.00. The figure for `Fc1ccc(C(CNc2cc(C(F)(F)F)nc3cc(C(F)(F)F)nn23)N2CC(c3ccccn3)C2)cc1` (racemic) [Example 24, N-(2-(4-Fluorophenyl)-2-(3-(pyridin-2-yl)azetidin-1-yl)ethyl)-2,5-bis(trifluoromethyl)pyrazolo[1,5-a]pyrimidin-7-amine] is 7.00 to 10.00; for `Cn1cc(NC2CN(C(CNc3cc(C(F)(F)F)nc4cc(C(F)(F)F)nn34)c3ccc(F)cc3)C2)nn1` (racemic) [Example 27, N-(2-(4-Fluorophenyl)-2-(3-((1-methyl-1H-1,2,3-triazol-4-yl)amino)azetidin-1-yl)ethyl)-2,5-bis(trifluoromethyl)pyrazolo[1,5-a]pyrimidin-7-amine] it is 7.00 to 10.00; for `Cn1ccnc1NC1CN(C(CNc2cc(C(F)(F)F)nc3cc(C(F)(F)F)nn23)c2ccc(F)cc2)C1` (racemic) [Example 28, N-(2-(4-Fluorophenyl)-2-(3-((1-methyl-1H-imidazol-2-yl)amino)azetidin-1-yl)ethyl)-2,5-bis(trifluoromethyl)pyrazolo[1,5-a]pyrimidin-7-amine] it is 7.00 to 10.00. On to `O=C1CCC2(CN(C(CNc3cc(C(F)(F)F)nc4cc(C(F)(F)F)nn34)c3ccc(F)cc3)C2)N1` (racemic) [Example 32, 2-(2-((2,5-Bis(trifluoromethyl)pyrazolo[1,5-a]pyrimidin-7-yl)amino)-1-(4-fluorophenyl)ethyl)-2,5-diazaspiro[3.4]octan-6-one], for which the pIC50 is 7.00 to 10.00.

With `NC(=O)N1CC2(CCN(C(CNc3cc(C(F)(F)F)nc4cc(C(F)(F)F)nn34)c3ccc(F)cc3)C2)C1` (racemic) [Example 33, 6-(2-((2,5-Bis(trifluoromethyl)pyrazolo[1,5-a]pyrimidin-7-yl)amino)-1-(4-fluorophenyl)ethyl)-2,6-diazaspiro[3.4]octane-2-carboxamide], the pIC50 is 7.00 to 10.00. The figure for `N#CC1(C(=O)N2CC3(C2)CN(C(CNc2cc(C(F)(F)F)nc4cc(C(F)(F)F)nn24)c2ccc(F)cc2)C3)CC1` (racemic) [Example 38, 1-(6-(2-((2,5-Bis(trifluoromethyl)pyrazolo[1,5-a]pyrimidin-7-yl)amino)-1-(4-fluorophenyl)ethyl)-2,6-diazaspiro[3.3]heptane-2-carbonyl)cyclopropane-1-carbonitrile] is 7.00 to 10.00; for `O=C(CO)N1CC2(C1)CN(C(CNc1cc(C(F)(F)F)nc3cc(C(F)(F)F)nn13)c1ccc(F)cc1)C2` (racemic) [Example 39, 1-(6-(2-((2,5-Bis(trifluoromethyl)pyrazolo[1,5-a]pyrimidin-7-yl)amino)-1-(4-fluorophenyl)ethyl)-2,6-diazaspiro[3.3]heptan-2-yl)-2-hydroxyethan-1-one] it is 7.00 to 10.00; for `[2H]C([2H])([2H])NC(=O)N1CC2(C1)CN(C(CNc1cc(C(F)(F)F)nc3cc(C(F)(F)F)nn13)c1ccc(F)cc1)C2` (racemic) [Example 40, 6-(2-((2,5-Bis(trifluoromethyl)pyrazolo[1,5-a]pyrimidin-7-yl)amino)-1-(4-fluorophenyl)ethyl)-N-(methyl-d3)-2,6-diazaspiro[3.3]heptane-2-carboxamide] it is 7.00 to 10.00. With `O=C(NCC(F)(F)F)N1CC2(C1)CN(C(CNc1cc(C(F)(F)F)nc3cc(C(F)(F)F)nn13)c1ccc(F)cc1)C2` (racemic) [Example 41, 6-(2-((2,5-Bis(trifluoromethyl)pyrazolo[1,5-a]pyrimidin-7-yl)amino)-1-(4-fluorophenyl)ethyl)-N-(2,2,2-trifluoroethyl)-2,6-diazaspiro[3.3]heptane-2-carboxamide] the figure was 7.00 to 10.00. With `O=C1NC2(CO1)CN(C(CNc1cc(C(F)(F)F)nc3cc(C(F)(F)F)nn13)c1ccc(F)cc1)C2` (racemic) [Example 42, 2-(2-((2,5-Bis(trifluoromethyl)pyrazolo[1,5-a]pyrimidin-7-yl)amino)-1-(4-fluorophenyl)ethyl)-7-oxa-2,5-diazaspiro[3.4]octan-6-one] the figure was 7.00 to 10.00; with `CC(CNc1cc(C(F)(F)F)nc2cc(C(F)(F)F)nn12)(c1ccc(F)cc1)C1CCN(C(N)=O)C1` (single isomer, unassigned) [Example 3, 3-(1-((2,5-Bis(trifluoromethyl)pyrazolo[1,5-a]pyrimidin-7-yl)amino)-2-(4-fluorophenyl)propan-2-yl)pyrrolidine-1-carboxamide], 7.00 to 10.00; with `CC(CNc1cc(C(F)(F)F)nc2cc(C(F)(F)F)nn12)(c1ccc(F)cc1)C1CCN(C(N)=O)C1` (single isomer, unassigned) [Example 4, 3-(1-((2,5-Bis(trifluoromethyl)pyrazolo[1,5-a]pyrimidin-7-yl)amino)-2-(4-fluorophenyl)propan-2-yl)pyrrolidine-1-carboxamide], 7.00 to 10.00.

Compound `NC(=O)N1CCC(C(CO)(CNc2cc(C(F)(F)F)nc3cc(C(F)(F)F)nn23)c2ccc(F)cc2)C1` (single isomer, unassigned) [Example 19, 3-(1-((2,5-Bis(trifluoromethyl)pyrazolo[1,5-a]pyrimidin-7-yl)amino)-2-(4-fluorophenyl)-3-hydroxypropan-2-yl)pyrrolidine-1-carboxamide] showed a pIC50 of 7.00 to 10.00.
